Test results taken from patent publication US11766430B2, “Methods of using a phenoxypropylamine compound to treat pain” (Minerva Neurosciences, Inc., priority 2018, dated 2023).
“Also recorded” adds a separate entry of the source.

Tests used:
Format in all cases: in vivo, Male Sprague Dawley rats
[1] = tested on: paclitaxel-induced peripheral neuropathic pain in rats; test: Prevention of paclitaxel-induced peripheral neuropathic pain, paw withdrawal threshold, chronic administration (Example 6); settings: for PWT compared to vehicle (in words): days 10 and 14
Method: (§1) Male Sprague Dawley rats from Envigo were used in the study. Animals were received at approximately 250 g and housed 3 per cage upon arrival. All rats were examined, handled, and weighed prior to initiation of the study to assure adequate health and suitability. During the course of the study, 12/12 light/dark cycles was maintained. The room temperature was be maintained between 20 and 23° C. with a relative humidity maintained around 50%. Chow and water was provided ad libitum for the duration of the study. All testing was performed during the animal's light cycle phase.
(§2) Paclitaxel (2 mg/kg) was purchased from Biolyse Pharma and injected i.p. on four alternate days (day 1, 3, 5 and 7) for a total of 4 injections at a dose volume of 1 mL/kg.
(§3) Gabapentin (100 mg/kg) was dissolved in saline and administered orally at a dose volume of 1 mL/kg. For prevention study, gabapentin was administered on day 14, sixty minutes prior to test. For reversal study, gabapentin was administered once daily for 2 weeks. On test days it was administered 60 minutes prior to test.
Prevention study: MIN-117 (10 mg/kg) was formulated in 0.5% (w/v) hydroxypropylmethyl cellulose (HPMC) 8°-120 centipoises in water and was administered i.p once daily for 7 or 14 days at a dose volume of 1 mL/kg. On test days, MIN-117 was administered 2 hours prior to test.
Rats were administered paclitaxel (2 mg/kg) on four alternate days (days 1, 3, 5 and 7). Baseline and post treatment Paw Withdrawal Threshold (PWT) were evaluated using von Frey filaments (Semmes-Weinstein filaments, Stoelting, Wood Dale, Ill., USA) of varying stiffness (0.4, 0.7, 1.2, 2.0, 3.6, 5.5, 8.5, 10, 15, 26 g). Animals were placed on a perforated metallic platform and allowed to acclimate to their surroundings for a minimum of 15 minutes before each test session. Each filament was presented perpendicular to the plantar surface with sufficient force to cause slight buckling against the paw, and then held until a positive response is noted (paw sharply withdrawn). As described by Chaplan et al. 1994, once the threshold was crossed, the 2 responses straddling the threshold are retrospectively designated as the first 2 responses. Four additional responses were measured to stimuli varied sequentially up or down based on the animal's response. […] The parameter k is from the Appendix 1 in Chaplan and was determined by the pattern of the von Frey responses (e.g. OXOXOX where ‘O’ indicates no response and ‘X’ denotes a withdrawal). […]
(§4) PWT was measured according to the Schematics in FIG. 9 (prevention) and FIG. 10 (reversal study).
Data was analyzed by analysis of variance (ANOVA) followed by post-hoc comparisons where appropriate. […]

[2] = tested on: paclitaxel-induced peripheral neuropathic pain in rats; test: Reversal of paclitaxel-induced peripheral neuropathic pain, paw withdrawal threshold, chronic administration (Example 6); settings: hydrochloride; for PWT compared to vehicle (in words): days 14, 21 and 28, 2 hours post dosing
Method: as §1, §2, §3
Reversal study: MIN-117 (1, 3 and 10 mg/kg) was formulated in 0.5% (w/v) hydroxypropylmethyl cellulose (HPMC) 8°-120 centipoises in water and administered i.p once daily for 2 weeks at a dose volume of 1 mL/kg. On test days, MIN-117 was administered 2 hours prior to test.
Rats were administered paclitaxel (2 mg/kg) on four alternate days (days 1, 3, 5 and 7). Baseline and post treatment Paw Withdrawal Threshold (PWT) were evaluated using von Frey filaments (Semmes-Weinstein filaments, Stoelting, Wood Dale, Ill., USA) of varying stiffness (0.4, 0.7, 1.2, 2.0, 3.6, 5.5, 8.5, 10, 15, 26 g). Animals were placed on a perforated metallic platform and allowed to acclimate to their surroundings for a minimum of 15 minutes before each test session. Each filament was presented perpendicular to the plantar surface with sufficient force to cause slight buckling against the paw, and then held until a positive response is noted (paw sharply withdrawn). As described by Chaplan et al. 1994, once the threshold was crossed, the 2 responses straddling the threshold are retrospectively designated as the first 2 responses. Four additional responses were measured to stimuli varied sequentially up or down based on the animal's response. The 6 responses in the immediate vicinity of the threshold were used to calculate the 50% g threshold: 50% g threshold=(10^[Xf+k*d])/10000 Xf is the final filament used (in log units). The parameter k is from the Appendix 1 in Chaplan and was determined by the pattern of the von Frey responses (e.g. OXOXOX where ‘O’ indicates no response and ‘X’ denotes a withdrawal). The parameter d is the difference between stimuli which Chaplan used a constant d=0.224. To accommodate for the use of the 10 g and 26 g filaments, the exact difference between stimuli were used.
as §4
(§5) Data was analyzed by analysis of variance (ANOVA) followed by post-hoc comparisons where appropriate. An effect will be considered significant if p<0.05. Data was represented as the mean and standard error to the mean (s.e.m). Statistical outliers that fell above or below 2 standard deviations of the mean were identified but not removed from the final analysis.

[3] = Body weight during the chemotherapy induced neuropathic pain study (Example 5); settings: paclitaxel days 1, 3, 5, 7; test compound on day 14; repeated measures ANOVA
Method: as §1, with “(from Envigo, Ind., USA)” for “from Envigo”, “12 h/12 h” for “12/12”, “phase. Every effort was made to minimize suffering of animals. Rats with baseline PWT less than 12 g were not included in the study. Rats were balanced by body weight and by their pre-paclitaxel PWT values. ANOVA found no significant differences between the treatment groups.” for “phase.”

[4] = Body weight, reversal study (Example 6); settings: 1, 3 and 10 mg/kg i.p. once daily for 2 weeks; repeated measures ANOVA
Method: (§6) Body weight (BW) was measured daily during treatment and twice a week after cessation of dosing.
as §5

[5] = Body weight, prevention study (Example 6); settings: 10 mg/kg i.p. once daily for 7 or 14 days; effect seen from day 2 until day 11
Method: as §6, §5

Which “PWT after cessation of treatment (in words)” value ([1]; 10 mg/kg i.p. for 7 or 14 days, day 21, one week or two weeks after cessation of treatment, hydrochloride) does the source give for `Cc1nnc(-c2cc3c(OC[C@@H](O)CN4CCC(c5ccc(Cl)c(Cl)c5)CC4)cccc3o2)o1.Cl` [MIN-117, (2S)-1-(4-(3,4-dichlorophenyl)piperidin-1-yl)-3-((2-(5-methyl-1,3,4-oxadiazol-2-yl)benzofuran-4-yl)oxy)propan-2-ol hydrochloride] here?
The value was “no analgesic effects; also recorded: returned to vehicle levels”.

And the “PWT compared to vehicle (in words)” value ([1]; 10 mg/kg i.p. once daily for one week (7 days) starting one day prior to paclitaxel)?
The value was “significantly higher PWT”.

And the “PWT compared to vehicle (in words)” value ([1]; 10 mg/kg i.p. once daily for two weeks (14 days) starting one day prior to paclitaxel, 2 hours post dosing)?
Its value is “significantly higher PWT”.

And the “PWT compared to vehicle (in words)” value ([2]; 1 mg/kg i.p. once daily for 2 weeks)?
The value was “significant increase in PWT; also recorded: significantly higher PWT”.

What about the “PWT compared to vehicle (in words)” value ([2]; 3 mg/kg i.p. once daily for 2 weeks) of the same molecule?
Its value is “significant increase in PWT; also recorded: significantly higher PWT”.

And the “PWT compared to vehicle (in words)” value ([2]; 10 mg/kg i.p. once daily for 2 weeks)?
Its value is “significant increase in PWT; also recorded: significantly higher PWT”.

And the “PWT after cessation of treatment (in words)” value ([2]; 1, 3 and 10 mg/kg i.p., day 35, one week after cessation of treatment)?
The value was “no analgesic effects; also recorded: returned to vehicle levels”.

And the “Body weight during the study, between groups (in words)” value [3]?
The value was “no significant difference between groups”.

And the “Body weight during treatment compared to vehicle (in words)” value [4]?
The value was “no significant treatment effect”.

And the “Body weight compared to vehicle (in words)” value [5]?
The value was “decrease in body weight”.
